Data published in US11427548B2 (Arvinas Operations, Inc., priority 2015, dated 2022).

Molecular target: T1, Androgen Receptor (Homo sapiens, UniProt P10275+P40337, T878A)
T1 construct: Compounds have been evaluated in this assay in LNCaP and/or VCaP cells utilizing similar protocols; endogenous in cells; host or cells: LNCaP cells
Assay: Androgen Receptor ELISA assay (PathScan AR ELISA) in LNCaP cells: AR degradation, Dmax and DC50
Assay type: cell-based
Details: for DC50: concentration that caused 50% Androgen Receptor degradation

[1] = highest percentage of Androgen Receptor degradation
[2] = highest percentage of Androgen Receptor degradation observed

T1 sequence (P10275 whole entry T878A): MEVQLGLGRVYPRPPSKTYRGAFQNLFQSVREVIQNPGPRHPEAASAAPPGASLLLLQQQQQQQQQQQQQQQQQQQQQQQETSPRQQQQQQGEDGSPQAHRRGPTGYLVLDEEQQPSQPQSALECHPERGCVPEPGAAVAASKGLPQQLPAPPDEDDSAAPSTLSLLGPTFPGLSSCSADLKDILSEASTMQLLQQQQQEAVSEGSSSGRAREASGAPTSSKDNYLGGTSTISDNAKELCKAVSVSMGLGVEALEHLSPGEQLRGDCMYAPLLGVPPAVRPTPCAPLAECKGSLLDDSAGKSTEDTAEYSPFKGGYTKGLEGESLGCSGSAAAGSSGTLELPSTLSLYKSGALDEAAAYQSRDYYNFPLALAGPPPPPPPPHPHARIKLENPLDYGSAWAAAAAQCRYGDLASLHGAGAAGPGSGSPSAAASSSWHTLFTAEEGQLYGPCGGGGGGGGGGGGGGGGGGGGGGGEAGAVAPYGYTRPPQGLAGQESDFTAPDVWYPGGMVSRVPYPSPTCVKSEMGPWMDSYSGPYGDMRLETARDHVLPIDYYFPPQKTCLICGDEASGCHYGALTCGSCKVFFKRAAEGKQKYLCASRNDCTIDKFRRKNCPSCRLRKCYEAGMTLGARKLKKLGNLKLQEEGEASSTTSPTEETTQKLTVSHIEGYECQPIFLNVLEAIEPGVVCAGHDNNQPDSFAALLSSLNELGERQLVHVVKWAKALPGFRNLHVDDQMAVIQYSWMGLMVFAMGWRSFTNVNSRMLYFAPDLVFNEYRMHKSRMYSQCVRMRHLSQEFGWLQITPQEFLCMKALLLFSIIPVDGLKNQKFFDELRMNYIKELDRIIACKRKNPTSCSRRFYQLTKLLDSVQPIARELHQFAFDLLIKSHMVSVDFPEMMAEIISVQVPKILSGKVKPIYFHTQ
T1 sequence (P40337 whole entry): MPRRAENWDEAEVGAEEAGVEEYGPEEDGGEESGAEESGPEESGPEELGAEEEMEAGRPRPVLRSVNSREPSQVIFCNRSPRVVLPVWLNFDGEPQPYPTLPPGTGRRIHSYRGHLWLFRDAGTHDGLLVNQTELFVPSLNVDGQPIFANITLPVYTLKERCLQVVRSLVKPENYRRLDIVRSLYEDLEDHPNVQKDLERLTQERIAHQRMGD
T1 sequence (Q15369 whole entry partner): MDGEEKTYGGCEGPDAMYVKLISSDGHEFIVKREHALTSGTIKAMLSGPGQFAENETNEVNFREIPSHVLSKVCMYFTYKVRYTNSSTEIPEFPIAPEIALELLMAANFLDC
T1 sequence (Q15370 whole entry partner): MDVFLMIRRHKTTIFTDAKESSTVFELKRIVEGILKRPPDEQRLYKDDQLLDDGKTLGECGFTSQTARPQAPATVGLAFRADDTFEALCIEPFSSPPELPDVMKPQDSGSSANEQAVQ

Cc1ncsc1-c1ccc(CNC(=O)[C@@H]2C[C@@H](O)CN2C(=O)[C@@H](NC(=O)C(C)C)C(C)(C)C)c(OCCOCCOCCOc2ccc(N3C(=S)N(c4ccc(C#N)c(C(F)(F)F)c4)C(=O)C3(C)C)cc2)c1 [Example 269]
DC50: > 501 nM
Dmax [1]: 51 to 70%

Cc1ncsc1-c1ccc(CNC(=O)[C@@H]2C[C@@H](O)CN2C(=O)[C@@H](NC(=O)COCCOCCOCCOc2ccc(N3C(=S)N(c4cnc(C#N)c(C(F)(F)F)c4)C(=O)C3(C)C)cc2)C(C)(C)C)cc1 [Example 21, (2S,4R)-1-[(2S)-2-[2-(2-{2-[2-(4-{3-[6-cyano-5-(trifluoromethyl)pyridin-3-yl]-5,5-dimethyl-4-oxo-2-sulfanylideneimidazolidin-1-yl}phenoxy)ethoxy]ethoxy}ethoxy)acetamido]-3,3-dimethylbutanoyl]-4-hydroxy-N-{[4-(4-methyl-1,3-thiazol-5-yl)phenyl]methyl}pyrrolidine-2-carboxamide]
Dmax [2]: 26 to 50%

Cc1ncsc1-c1ccc(CNC(=O)[C@@H]2C[C@@H](O)CN2C(=O)[C@@H](NC(=O)COCCCOCCCCCOc2ccc(N3C(=S)N(c4ccc(C#N)c(C(F)(F)F)c4)C(=O)C3(C)C)cc2F)C(C)(C)C)cc1 [Example 3, (2S,4R)-1-[(2S)-2-[2-(3-{[5-(4-{3-[4-cyano-3-(trifluoromethyl)phenyl]-5,5-dimethyl-4-oxo-2-sulfanylideneimidazolidin-1-yl}-2-fluorophenoxy)pentyl]oxy}propoxy)acetamido]-3,3-dimethylbutanoyl]-4-hydroxy-N-{[4-(4-methyl-1,3-thiazol-5-yl)phenyl]methyl}pyrrolidine-2-carboxamide]
DC50: < 50 nM
Dmax [2]: > 71%

Cc1ncsc1-c1ccc(CNC(=O)[C@@H]2C[C@@H](O)CN2C(=O)[C@@H](NC(=O)COCCOCCCCCOCCCCCOCCOCCOc2ccc(N3C(=S)N(c4ccc(C#N)c(C(F)(F)F)c4)C(=O)C3(C)C)cc2)C(C)(C)C)cc1 [Example 224]
Dmax [1]: 26 to 50%

Cc1ncsc1-c1ccc(CNC(=O)[C@@H]2C[C@@H](O)CN2C(=O)[C@@H](NC(=O)CCOCCCCCOc2ccc(-c3ccc(N4C(=S)N(c5ccc(C#N)c(C(F)(F)F)c5)C(=O)C4(C)C)cc3)cc2)C(C)(C)C)cc1 [Example 72, (2S,4R)-1-[(2S)-2-[3-({5-[4-(4-{3-[4-cyano-3-(trifluoromethyl)phenyl]-5,5-dimethyl-4-oxo-2-sulfanylideneimidazolidin-1-yl}phenyl)phenoxy]pentyl}oxy)propanamido]-3,3-dimethylbutanoyl]-4-hydroxy-N-{[4-(4-methyl-1,3-thiazol-5-yl)phenyl]methyl}pyrrolidine-2-carboxamide]
DC50: 51 to 500 nM
Dmax [2]: > 71%

Cc1ncsc1-c1ccc(CNC(=O)[C@@H]2C[C@@H](O)CN2C(=O)[C@H](C(C)C)N2Cc3cc(CCCCCOc4ccc(N5C(=S)N(c6ccc(C#N)c(C(F)(F)F)c6)C(=O)C5(C)C)cc4)ccc3C2=O)cc1 [Example 251]
DC50: 51 to 500 nM
Dmax [1]: 51 to 70%

Cc1ncsc1-c1ccc(CNC(=O)[C@@H]2C[C@@H](O)CN2C(=O)[C@@H](NC(=O)COCCOCCOCCOc2ccc(N3C(=S)N(c4ccc([N+](=O)[O-])c(C(F)(F)F)c4)C(=O)C3(C)C)cc2)C(C)(C)C)cc1 [Example 19, (2S,4R)-1-[(2S)-2-[2-(2-{2-[2-(4-{5,5-dimethyl-3-[4-nitro-3-(trifluoromethyl)phenyl]-4-oxo-2-sulfanylideneimidazolidin-1-yl}phenoxy)ethoxy]ethoxy}ethoxy)acetamido]-3,3-dimethylbutanoyl]-4-hydroxy-N-{[4-(4-methyl-1,3-thiazol-5-yl)phenyl]methyl}pyrrolidine-2-carboxamide]
DC50: < 50 nM
Dmax [2]: 51 to 70%

Cc1ncsc1-c1ccc(CNC(=O)[C@@H]2C[C@@H](O)CN2C(=O)[C@@H](NC(=O)CCOCCCOc2ccc(N3C(=S)N(c4ccc(C#N)c(C(F)(F)F)c4)C(=O)C3(C)C)cc2)C(C)(C)C)cc1 [Example 244]
DC50: 51 to 500 nM
Dmax [1]: < 25%

Cc1ncsc1-c1ccc(CNC(=O)[C@@H]2C[C@@H](O)CN2C(=O)[C@@H](NC(=O)COCCOCCCOCCOc2ccc(N3C(=S)N(c4ccc(C#N)c(C(F)(F)F)c4)C(=O)C3(C)C)cc2)C(C)(C)C)cc1 [Example 240]
DC50: < 50 nM
Dmax [1]: 51 to 70%

Cc1ncsc1-c1ccc(CNC(=O)[C@@H]2C[C@@H](O)CN2C(=O)[C@H](C(C)C)N2Cc3cc(CCCCOCCCOc4ccc(N5C(=S)N(c6ccc(C#N)c(C(F)(F)F)c6)C(=O)C5(C)C)cc4)ccc3C2=O)cc1 [Example 273]
DC50: > 501 nM
Dmax [1]: 26 to 50%

Cc1ncsc1-c1ccc(CNC(=O)[C@@H]2C[C@@H](O)CN2C(=O)[C@H](C(C)C)N2Cc3ccccc3C2=O)c(OCCO[C@@H]2CCC[C@@H]2OCCOc2ccc(N3C(=S)N(c4ccc(C#N)c(C(F)(F)F)c4)C(=O)C3(C)C)cc2)c1 [Example 304]
DC50: 51 to 500 nM
Dmax [1]: 26 to 50%

Cc1ncsc1-c1ccc(CNC(=O)[C@@H]2C[C@@H](O)CN2C(=O)[C@@H](NC(=O)c2ccc(OCCOc3ccc(-c4ccc(N5C(=S)N(c6ccc(C#N)c(C(F)(F)F)c6)C(=O)C5(C)C)cc4)cc3)cc2)C(C)(C)C)cc1 [Example 286]
DC50: < 50 nM
Dmax [1]: 51 to 70%

Cc1ncsc1-c1ccc(CNC(=O)[C@@H]2C[C@@H](O)CN2C(=O)[C@H](C(C)C)N2Cc3cc(CCCOCCOc4ccc(N5C(=S)N(c6ccc(C#N)c(C(F)(F)F)c6)C(=O)C5(C)C)cc4)ccc3C2=O)cc1 [Example 248]
DC50: 51 to 500 nM
Dmax [1]: 26 to 50%

Cc1ncsc1-c1ccc(CNC(=O)[C@@H]2C[C@@H](O)CN2C(=O)[C@H](C(C)C)N2Cc3ccccc3C2=O)c(OCCCOc2ccc(N3C(=S)N(c4ccc(C#N)c(C(F)(F)F)c4)C(=O)C3(C)C)cc2)c1 [Example 254]
DC50: 51 to 500 nM
Dmax [1]: 51 to 70%

Cc1ncsc1-c1ccc(CNC(=O)[C@@H]2C[C@@H](O)CN2C(=O)[C@@H](NC(=O)COCCCOCCCCCOc2ccc(N3C(=S)N(c4ccc(C#N)c(F)c4)C(=O)C3(C)C)cc2)C(C)(C)C)cc1 [Example 7]
DC50: < 50 nM
Dmax [2]: 51 to 70%

Cc1ncsc1-c1ccc(CNC(=O)[C@@H]2C[C@@H](O)CN2C(=O)[C@H](C(C)C)N2Cc3ccccc3C2=O)c(OCCOCCOCCCCCOCCCCCOCCOCCOc2ccc(N3C(=S)N(c4ccc(C#N)c(C(F)(F)F)c4)C(=O)C3(C)C)cc2)c1 [Example 220]
Dmax [1]: 51 to 70%

Cc1ncsc1-c1ccc(CNC(=O)[C@@H]2C[C@@H](O)CN2C(=O)[C@H](C(C)C)N2Cc3ccccc3C2=O)c(OCCCOCCOCCOc2ccc(N3C(=S)N(c4ccc(C#N)c(C(F)(F)F)c4)C(=O)C3(C)C)cc2)c1 [Example 205]
DC50: > 501 nM
Dmax [1]: < 25%

Cc1ncsc1-c1ccc(CNC(=O)[C@@H]2C[C@@H](O)CN2C(=O)[C@@H](NC(=O)c2cccc(OCCCOc3ccc(N4C(=S)N(c5ccc(C#N)c(C(F)(F)F)c5)C(=O)C4(C)C)cc3)c2)C(C)(C)C)cc1 [Example 277]
DC50: 51 to 500 nM
Dmax [1]: < 25%

Cc1ncsc1-c1ccc(CNC(=O)[C@@H]2C[C@@H](O)CN2C(=O)[C@@H](NC(=O)COCCOCCCCOCCCCOCCOCCOc2ccc(N3C(=S)N(c4ccc(C#N)c(C(F)(F)F)c4)C(=O)C3(C)C)cc2)C(C)(C)C)cc1 [Example 223]
Dmax [1]: 26 to 50%

Cc1ncsc1-c1ccc(CNC(=O)[C@@H]2C[C@@H](O)CN2C(=O)[C@@H](NC(=O)c2ccc(OCCCOc3ccc(-c4ccc(N5C(=S)N(c6ccc(C#N)c(C(F)(F)F)c6)C(=O)C5(C)C)cc4)cc3)cc2)C(C)(C)C)cc1 [Example 284]
DC50: 51 to 500 nM
Dmax [1]: 26 to 50%

Cc1ncsc1-c1ccc(CNC(=O)[C@@H]2C[C@@H](O)CN2C(=O)[C@@H](NC(=O)COCCCOCCCCCOc2ccc(N3C(=S)N(c4ccc([N+](=O)[O-])c(C(F)(F)F)c4)C(=O)C3(C)C)cc2)C(C)(C)C)cc1 [Example 5, (2S,4R)-1-[(2S)-2-[2-(3-{[5-(4-{5,5-dimethyl-3-[4-nitro-3-(trifluoromethyl)phenyl]-4-oxo-2-sulfanylideneimidazolidin-1-yl}phenoxy)pentyl]oxy}propoxy)acetamido]-3,3-dimethylbutanoyl]-4-hydroxy-N-{[4-(4-methyl-1,3-thiazol-5-yl)phenyl]methyl}pyrrolidine-2-carboxamide]
DC50: 51 to 500 nM
Dmax [2]: > 71%

Cc1ncsc1-c1ccc(CNC(=O)[C@@H]2C[C@@H](O)CN2C(=O)[C@H](C(C)C)N2Cc3cccc(C#N)c3C2=O)c(OCCOCCOCCOc2ccc(N3C(=S)N(c4ccc(C#N)c(C(F)(F)F)c4)C(=O)C3(C)C)cc2)c1 [Example 84]
DC50: 51 to 500 nM
Dmax [2]: 51 to 70%

Cc1ncsc1-c1ccc(CNC(=O)[C@@H]2C[C@@H](O)CN2C(=O)[C@@H](NC(=O)COCCOCCOCCOCCOCCOCCOc2ccc(N3C(=S)N(c4ccc(C#N)c(C(F)(F)F)c4)C(=O)C3(C)C)cc2)C(C)(C)C)cc1 [Example 212]
DC50: > 501 nM
Dmax [1]: > 71%

Cc1cc(N2C(=O)C(C)(C)N(c3ccc(OCCCCCOCCCOCC(=O)N[C@H](C(=O)N4C[C@H](O)C[C@H]4C(=O)NCc4ccc(-c5scnc5C)cc4)C(C)(C)C)cc3)C2=S)ccc1C#N [Example 6, (2S,4R)-1-[(2S)-2-(2-{3-[(5-{4-[3-(4-cyano-3-methylphenyl)-5,5-dimethyl-4-oxo-2-sulfanylideneimidazolidin-1-yl]phenoxy}pentyl)oxy]propoxy}acetamido)-3,3-dimethylbutanoyl]-4-hydroxy-N-{[4-(4-methyl-1,3-diiazol-5-yl)phenyl]methyl}pyrrolidine-2-carboxamid]
DC50: < 50 nM
Dmax [2]: > 71%

Cc1ncsc1-c1ccc(CNC(=O)[C@@H]2C[C@@H](O)CN2C(=O)[C@H](C(C)C)N2Cc3cc(CCCCOCCOc4ccc(N5C(=S)N(c6ccc(C#N)c(C(F)(F)F)c6)C(=O)C5(C)C)cc4)ccc3C2=O)cc1 [Example 252]
DC50: 51 to 500 nM
Dmax [1]: 51 to 70%
